# Source: patent US7112676B2, “Pyrimido compounds having antiproliferative activity” (Hoffmann-La Roche Inc., priority 2002, dated 2006)
# Test system: FGF-stimulated HUVEC
# Experiment: FGF-stimulated HUVEC proliferation assay (BrdU)
# Type: cell-based
# Settings: Homo sapiens, FGF 5 ng per mL, BrdU labeling, 24 hour exposure, read-out: IC50 (μM) of VEGF and FGF-Stimulated HUVEC Proliferation Assays HUVEC/bFGFR
# Procedure: The antiproliferative activity of test compounds of this invention in cell-based assays was evaluated by BrdU assay using the BrdU kit (Roche Biochemicals 1-647-229). Human umbilical vein endothelial cells (HUVEC, Clonetics CC-2519) were cultured in EGM-2 (Clonetics CC-3162) medium and seeded at 10000 cells per well in a volume of 200 μL of EGM-2 (Clonetics CC-3162) media in a 96-well flat bottom plates (Costar 3595) overnight. After 24 hours of growth at 37° C. with 5% CO2, the incubation media was removed slowly by aspiration and the content of each well was washed with 300 μL pre-warmed EBM-2 (Clonetics CC-3156) containing 50 μg per mL of gentamycin and 50 ng per mL of amphotercin-B (Clonetics CC-4083). Subsequently, the remaining media was again aspirated and replaced with 160 μL per well of serum starvation media (EBM-2 supplemented with 1% heat inactivated FBS (Clonetics CC-4102), 50 μg per mL gentamycin and 50 ng per mL of amphotercin-B (Clonetics CC-4083), 10 units per mL of Wyeth-Ayerst heparin (NDC0641-0391-25), and 2 mM L-glutamine (GIBCO 25030-081). After serum starving the cells for 24 hours, 20 μL of test compound at 10× test concentration in serum starvation medium with 2.5% DMSO was added to the appropriate wells. The control wells contained 20 μL of serum starvation medium with 2.5% DMSO. Plates were returned to the incubator for 2 hours. After pre-incubating the cells with the test compounds for 2 hours, 20 μL of growth factors at 10× assay concentration diluted in serum starvation media, FGF at 50 ng per mL, or VEGF (R&D systems 293-VE) at 200 ng per mL were added. The final concentration of FGF in the assay was 5 ng per mL and the final concentration of VEGF in the assays was 20 ng per mL. The growth factor free control wells had 20 μL per well of serum starvation media with the same amount of BSA as the wells with growth factors. The plates were returned to the incubator for an additional 22 hours.
# After 24 hour exposure to the test compounds, the cells were labeled with BrdU (Roche Biochemicals 1-647-229), by adding 20 μL per well of BrdU labeling reagent that has been diluted (1:100) in serum starvation medium. The plates were then returned to the incubator for 4 hours. The labeling medium was removed by draining the medium onto paper towels. The cells were fixed and DNA denatured by adding 200 μL of fixation/denaturation solution to each well and incubating at room temperature for 45 minutes. The fixation/denaturation solution was drained onto paper towels and to each well was added 100 μL of anti-BrdU-POD and the wells were incubated for 2 hours at room temperature. The antibody solution was removed and the wells were each washed 3–4 times with 300 μl PBS. 100 μL of the TMB substrate solution was added to each well and the wells were incubated at room temperature for 5–8 minutes. The reaction was then stopped by adding 100 μL per well of 1 M phosphoric acid. The plates were read at 450 nm with reference wavelength of 650 nm. The percent inhibition for each test compound was calculated by subtracting the absorbency of the blank (no cells) wells from all wells, then subtracting the division of the average absorbency of each test duplicate by the average of the controls from 1. The final product was then multiplied by 100 (% of inhibition=(1−average absorbency of test duplicate/average of control)100). The IC50 value is the concentration of test compound that inhibits by 50% BrdU labeling, and is a measure of inhibition of cell proliferation. The IC50 is determined from the linear regression of a plot of the logarithm of the concentration versus percent inhibition.
row,SMILES,IC50 [µM]
1,"COc1ccc(N2C(=O)N(c3cccc(C(N)=O)c3)c3nc(Nc4ccccc4)ncc3C2C)cc1 (racemic) [Example 6, (±)-3-[3-(4-Methoxy-phenyl)-4-methyl-2-oxo-7-phenylamino-3,4-dihydro-2H-pyrimido[4,5-d]pyrimidin-1-yl]-benzamide]",< 10
2,"COc1ccc(N2C(=O)N([C@H](C)CO)c3nc(Nc4ccccc4)ncc3[C@@H]2C)cc1 [Example 15b, 1-(2-Hydroxy-1-(R)-methyl-ethyl)-3-(4-methoxy-phenyl)-4-(S)-methyl-7-phenylamino-3,4-dihydro-1H-pyrimido[4,5-d]pyrimidin-2-one]",< 10
3,"COc1ccc(N2C(=O)N(c3ccccc3)c3nc(Nc4ccccc4)ncc3C2C)c(F)c1 (racemic) [Example 8d, (±)-3-(2-Fluoro-4-methoxy-phenyl)-4-methyl-1-phenyl-7-phenylamino-3,4-dihydro-1H-pyrimido[4,5-d]pyrimidin-2-one]",< 10
4,"COc1ccc(N2C(=O)N(c3cccc(C#N)c3)c3nc(Nc4ccccc4)ncc3C2C)c(F)c1 (racemic) [Example 9b, (±)-3-[3-(2-Fluoro-4-methoxy-phenyl)-4-methyl-2-oxo-7-phenylamino-3,4-dihydro-2H-pyrimido[4,5-d]pyrimidin-1-yl]-benzonitrile]",< 10
5,"COc1ccc(N2C(=O)N(c3ccccc3)c3nc(Nc4ccccc4)ncc3[C@@H]2C)cc1 (single isomer, unassigned) [Example 3]",< 10
6,"COc1ccc(N2C(=O)N(c3ccc(OC)cc3)C(C)c3cnc(Nc4ccccc4)nc32)cc1 (racemic) [Example 4b, (±)-1,3-Bis-(4-methoxy-phenyl)-4-methyl-7-phenylamino-3,4-dihydro-1H-pyrimido[4,5-d]pyrimidin-2-one]",< 10
7,"COc1ccc(N2C(=O)N(c3ccccc3)c3nc(Nc4ccccc4)ncc3C2C)cc1 (racemic) [Example 1g, (±)-3-(4-Methoxy-phenyl)-4-methyl-1-phenyl-7-phenylamino-3,4-dihydro-1H-pyrimido[4,5-d]pyrimidin-2-one]",< 10
8,"COc1ccc(N2C(=O)N(c3cccc(C(N)=O)c3)c3nc(Nc4ccccc4)ncc3C2C)c(F)c1 (racemic) [Example 10, (±)-3-[3-(2-Fluoro-4-methoxy-phenyl)-4-methyl-2-oxo-7-phenylamino-3,4-dihydro-2H-pyrimido[4,5-d]pyrimidin-1-yl]-benzamide]",< 10
9,"COc1ccc(N2C(=O)N(c3cccc(C#N)c3)c3nc(Nc4ccccc4)ncc3C2C)cc1 (racemic) [Example 5b, (±)-3-[3-(4-Methoxy-phenyl)-4-methyl-2-oxo-7-phenylamino-3,4-dihydro-2H-pyrimido[4,5-d]pyrimidin-1-yl]-benzonitrile]",< 10
